Patent US20070289889A1, “Biomarkers For The Prediction Of Drug-In Duced Diarrhea” (NOVARTIS AG, priority 2003, published 2007)

Assays:
[1] = Rothermel et al. 2003; cited from earlier work
[2] = test system: drug-sensitive and multidrug-resistant cells overexpressing P-glycoprotein; conditions: cited from earlier work
white blood cells = assay: mRNA expression profiling (Affymetrix U95A) of white blood cells, baseline vs. treated; type: in vivo, human
Description: Samples. Forty-three out of the ninety-one subjects who enrolled in the clinical trial consented to clinical pharmacogenetics analysis. For each subject, two clinical pharmacogenetics blood samples were scheduled: baseline and on Day 2 of Week 1 at hour 24. White blood cell (WBC) pellets were ficoll-hypaque separated from the whole blood by the investigator, frozen at −80° C. mRNA was extracted and profiled on the Affymetrix U95A GeneChip® platform.
mRNA expression profiling analysis. Any array with greater than 20% of genes called present by the Affymetrix MAS5 algorithm was a candidate for the analyses described herein. Affymetrix, “New statistical algorithms for monitoring gene expression on GeneChip® probe arrays.” Affymetrix Technical Notes. (2001). […] Forty-two out of the possible eighty-six arrays met the quality standards needed for analysis.
(§1) Statistical analysis. Fisher's Exact tests were performed to compare the demographics of the clinical pharmacogenetics participants to the overall trial population. An analysis of variance (ANOVA) was used to determine whether mRNA gene expression patterns correlated to either treatment status (baseline vs. treated), to experiencing diarrhoea (no diarrhoea vs. diarrhoea) or to whether specific blood cell type levels correlated to experiencing diarrhoea. All statistical analyses were performed using the SigmaStat 2.03 and SAS 8.02 programs.
Analysis of baseline vs. treated mRNA profiles by treatment group. To determine if gene expression in white blood cells was altered by epothilone B at 24 hours after treatment, a comparison between baseline and treated expression profiles was performed.

[3] = Blood cell, haematocrit and haemoglobin levels after epothilone B treatment by diarrhoea status; type: in vivo, human; conditions: for Basophils / Eosinophils / Haematocrit / Haemoglobin / Lymphocytes / Monocytes / Neutrophils / Platelets / White Blood Cells: CPG subjects after a single dose, mean ± SEM
Description: as §1
Next, the levels of each blood cell type were compared between the two groups of subjects. Because these values were not determined at the blood draw timepoint, values for the second blood draw timepoint after baseline in cycle 1, corresponding to the first blood draw after the first epothilone B treatment (usually 24 hours after the […]) were used for this comparison. […] See, TABLE 4 and FIGS. 1-2.
Because females generally have lower levels of haematocrit and haemoglobin compared to males, a similar analysis was done by sex. As shown in TABLE 5 and FIGS. 1-2, similar trends in haematocrit and haemoglobin levels were identified for each sex. To determine if these associations exist for the entire trial subject population, the haematocrit and haemoglobin levels for all subjects at the second blood draw after baseline in cycle 1 were investigated.

[4] = 3.6 mg/m^2, 24 hours after treatment
[5] = CPG Females after a single dose, Diarrhoea (n = 10)
[6] = CPG Females after a single dose, No Diarrhoea (n = 4)
[7] = CPG Males after a single dose, Diarrhoea (n = 5)
[8] = CPG Males after a single dose, No Diarrhoea (n = 1)
[9] = all Females after treatment, Diarrhoea (n = 42)
[10] = all Females after treatment, No Diarrhoea (n = 22)
[11] = all Males after treatment, Diarrhoea (n = 16)
[12] = all Males after treatment, No Diarrhoea (n = 11)
[13] = all subjects after treatment, Diarrhoea any grade (n = 58)
[14] = all subjects after treatment, No Diarrhoea (n = 33)

For `C/C(=C\c1csc(C)n1)[C@@H]1C[C@@H]2O[C@]2(C)CCC[C@H](C)[C@H](O)[C@@H](C)C(=O)C(C)(C)[C@@H](O)CC(=O)O1` [epothilone B, Epothilone B], the “dose-limiting toxicity (diarrhoea)” value [1] is listed as “dose-limiting toxicity”, the myelosuppression [1] is listed as “no myelosuppression” and the “cytotoxicity, drug-sensitive vs. multidrug-resistant cells” value [2] is listed as “equally cytotoxic”. The “Fold Change [treated/baseline] DAPK1 (40049_at) mRNA” value (white blood cells; [4]) was 2.1, the “Fold Change [treated/baseline] DR1 (32621_at) mRNA” value (white blood cells; [4]) was 1.9 and the “Fold Change [treated/baseline] JAK1 (1457_at) mRNA” value (white blood cells; [4]) was 1.7. The “Fold Change [treated/baseline] K-ALPHA-1 (32272_at) mRNA” value (white blood cells; [4]) was 1.7, the “Fold Change [treated/baseline] MAP4K2 (187_at) mRNA” value (white blood cells; [4]) was −1.7 and the “Fold Change [treated/baseline] RAP1A (1848_at) mRNA” value (white blood cells; [4]) was 1.9. The “Fold Change [treated/baseline] SURF2 (38210_at) mRNA” value (white blood cells; [4]) was 2.4, the “Fold Change [treated/baseline] TCFL4 (32578_at) mRNA” value (white blood cells; [4]) was −1.6 and the “Fold Change [treated/baseline] TM9SF1 (38835_at) mRNA” value (white blood cells; [4]) was 2.2. For the same molecule, the “Fold Change [treated/baseline] ZFP36 (40448_at) mRNA” value (white blood cells; [4]) was 1.6, the “Fold Change [treated/baseline] nuclear transcription factor Y, alpha (33297_at) mRNA” value (white blood cells; [4]) was −1.6 and the “number of genes with statistically significant changes in expression, treated vs. baseline” value (white blood cells; 3.6 mg/m^2 treatment, 24 hours) was “eleven”. The “genes with statistically significant expression differences, treated vs. baseline” value (white blood cells; 2.5 and 3.0 mg/m^2 treatments, 24 hours) was “No genes with statistically significant differences were identified”, the “genes with statistically significant expression differences, treated vs. baseline” value (white blood cells; all treated samples combined, 24 hours after treatment) was “no genes with statistically significant differences were identified” and the HCT [3, 5] was 35.63 ± 0.01%. The HGB [3, 5] was 12.01 ± 0.35 g/dL, the HCT [3, 6] was 30.63 ± 0.20% and the HGB [3, 6] was 10.40 ± 0.20 g/dL. The HCT [3, 7] was 38.30 ± 1.77%, the HGB [3, 7] was 13.18 ± 0.62 g/dL and the HCT [3, 8] was 26.30%. For the same molecule, the HGB [3, 8] was 8.70 g/dL, the Basophils ([3]; Diarrhoea (n = 15)) was 0.57 ± 0.12% and the Eosinophils ([3]; Diarrhoea (n = 15)) was 2.74 ± 0.45%. The Haematocrit ([3]; Diarrhoea (n = 15)) was 36.11 ± 0.91%, the Haemoglobin ([3]; Diarrhoea (n = 15)) was 12.40 ± 0.33 g/dL and the Lymphocytes ([3]; Diarrhoea (n = 15)) was 19.92 ± 1.92%. The Monocytes ([3]; Diarrhoea (n = 15)) was 7.88 ± 0.71%, the Neutrophils ([3]; Diarrhoea (n = 15)) was 68.81 ± 2.38% and the Platelets ([3]; Diarrhoea (n = 15)) was 259.20 ± 23.25 THOU/MM^3. For the same molecule, the “White Blood Cells” value ([3]; Diarrhoea (n = 15)) was 5.60 ± 0.44 THOU/MM^3, the Basophils ([3]; No Diarrhoea (n = 5)) was 0.64 ± 0.22% and the Eosinophils ([3]; No Diarrhoea (n = 5)) was 3.42 ± 0.73%. It also gave a Haematocrit ([3]; No Diarrhoea (n = 5)) of 29.76 ± 0.87%, a Haemoglobin ([3]; No Diarrhoea (n = 5)) of 10.06 ± 0.84 g/dL and a Lymphocytes ([3]; No Diarrhoea (n = 5)) of 14.50 ± 0.74%. It also gave a Monocytes ([3]; No Diarrhoea (n = 5)) of 8.10 ± 0.74%, a Neutrophils ([3]; No Diarrhoea (n = 5)) of 73.60 ± 2.05% and a Platelets ([3]; No Diarrhoea (n = 5)) of 334.40 ± 54.80 THOU/MM^3. The “White Blood Cells” value ([3]; No Diarrhoea (n = 5)) was 5.92 ± 0.87 THOU/MM^3, the HCT [3, 9] was 34.34 ± 0.69% and the HGB [3, 9] was 11.56 ± 0.25 g/dL. It also gave an HCT [3, 10] of 33.17 ± 0.94%, an HGB [3, 10] of 11.13 ± 0.30 g/dL and an HCT [3, 11] of 32.84 ± 1.50%. The HGB [3, 11] was 12.46 ± 0.44 g/dL, the HCT [3, 12] was 37.48 ± 1.39% and the HGB [3, 12] was 11.06 ± 0.46 g/dL. It also gave an HCT [3, 13] of 35.21 ± 0.67%, an HGB [3, 13] of 11.81 ± 0.22 g/dL and an HCT [3, 14] of 33.06 ± 0.77%. It also gave an HGB [3, 14] of 11.11 ± 0.25 g/dL.
